Test in all cases: inhibition of tumour cell growth, NCI panel, 48 h
Experiment [1] deals with NCI-H522 lung.
In experiment [2] the test system is TK-10 renal.
Experiment [3] has as its system MDA-MB-435.
The subject of experiment [4] is SF-268 CNS.
In experiment [5] the test system is SK-MEL-28 melanoma.
In experiment [6] the test system is LOX IMVI melanoma.
Experiment [7] has as its system OVCAR-4 ovarian.
Experiment [8] concerns PC-3 prostate.
The test system of experiment [9] is UACC-257 melanoma.
The subject of experiment [10] is SW-620 colon.

Each structure is given as a SMILES string. Values joined by “and” are separate entries in the source; they are usually repeats but may differ in a detail not shown here. Identical values can stand only once.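 Following 48 hours of exposure in 96-well plates, responses at five concentrations were used to interpolate endpoints linearly. Abbreviation: GI50, concentration required for 50% inhibition of growth. TGI: total growth inhibition.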

As for `CCOc1ccc2c(c1)CN(Cc1ccc(Cl)cc1)CO2`, the GI50 is 15.9 µM in experiment [1]; 19 µM in [2]; 15.2 µM in [3]; 28.1 µM in experiment [4]; 14.4 µM in experiment [5]; 17.2 µM in [6]. In addition, the GI50 in experiment [7] is 19.8 µM; in experiment [8] it was 27.9 µM; in experiment [9], 16 µM; in experiment [10] it was 16.4 µM. Also, the TGI in experiment [1] is 34 µM; in experiment [2], 64.8 µM; in [3], 29.5 µM; in experiment [4] it was more than 100 µM; in experiment [5], 28.4 µM; in experiment [6], 33.4 µM. The TGI in experiment [7] is 50.3 µM; in experiment [8], more than 100 µM; in experiment [9], 35.8 µM; in experiment [10], 32.1 µM.
As to `COc1ccc(Cl)cc1Nc1nc(C(F)(F)F)ccc1C(=O)N/N=C/c1cccnc1`, the GI50 in experiment [1] was 2.47 µM; in experiment [2], 5.9 µM; in experiment [3], 5.63 µM; in experiment [4], 2.52 µM; in [5], 3.95 µM; in [6], 3.17 µM. Besides, the GI50 in experiment [7] is 0.521 µM; in experiment [8] it was 3.8 µM; in experiment [9], 3.93 µM; in experiment [10], 4.07 µM. The TGI was 74.7 µM in experiment [1]; more than 100 µM in experiment [2]; more than 100 µM in [3]; 61.5 µM in experiment [4]; more than 100 µM in experiment [5]; more than 100 µM in [6]. The TGI in [7] is more than 100 µM; in experiment [8], more than 100 µM; in experiment [9], 9.88 µM; in experiment [10], more than 100 µM.
In the case of `O=C1c2ccccc2C(=O)c2c1ccc1c(=O)n(-c3ccccc3C(F)(F)F)nnc21`, the GI50 in [1] was 1.81 µM; in experiment [2], 3.89 µM; in experiment [3], 1.66 µM; in experiment [4], 2.74 µM; in [5], 5.79 µM; in experiment [6] it was 1.59 µM. Further, the GI50 is 1 µM in experiment [7], 2.2 µM in [8], 1.71 µM in experiment [9] and 3.43 µM in experiment [10]. Besides, the TGI in experiment [1] is 5.71 µM; in [2], more than 100 µM; in experiment [3], 3.1 µM; in experiment [4], more than 100 µM; in experiment [5], more than 100 µM; in [6] it was 4.2 µM. In addition, the TGI in experiment [7] is 2.21 µM; in [8], more than 100 µM; in [9] it was 3.51 µM; in [10], more than 100 µM.
As to `CC(c1ccccc1)[C@@H](C(=O)Nc1ccc(I)cc1F)N1C(=O)N[C@H](c2ccc(OC[C@H](O)CO)cc2)C1=O` (stereo not given in full), the GI50 in experiment [1] is more than 17.8 µM; in experiment [2] it was 4.86 µM; in experiment [3] it was 0.0817 µM; in experiment [4], 15.2 µM; in [5], 0.026 µM; in experiment [6] it was 2.5 µM. The GI50 in [7] was 8.97 µM; in [8], more than 15.4 µM; in experiment [9], 0.052 µM; in experiment [10], 1.09 µM. Moreover, the TGI in [1], in experiment [2], in [3], in experiment [4], in experiment [5] and in [6] was more than 25 µM throughout. The TGI in [7] was more than 25 µM; in [8], more than 25 µM; in experiment [9], 0.892 µM; in [10] it was more than 25 µM.
Regarding `C/C(=N/O)c1ccc2c(c1)/C(=N/O)c1ccccc1-2`, the GI50 in experiment [1] is 17.9 µM; in experiment [2], 26.7 µM; in experiment [3] it was 18.7 µM; in experiment [4], 32.2 µM; in experiment [5] it was 17.9 µM; in experiment [6], 16.3 µM. For the same molecule, the GI50 in experiment [7] is 15.1 µM; in experiment [8], 24.2 µM; in experiment [9] it was 29.4 µM; in experiment [10], 19.3 µM. The TGI in experiment [1] is 35.2 µM; in [2], 67.2 µM; in [3] it was 39.4 µM; in [4], more than 100 µM; in [5] it was 39.9 µM; in [6] it was 33.3 µM. Also, the TGI in [7] was found to be 45.4 µM; in [8], 57.4 µM; in experiment [9], 65.5 µM; in experiment [10], 44.2 µM.
As to `CCN(CC)CCC(CNc1ccnc2cc(Cl)ccc12)c1ccccc1` (stereo not given), the GI50 in experiment [1] is 2.58 µM; in experiment [2], 2.11 µM; in experiment [3], 2.01 µM; in [4] it was 7.85 µM; in experiment [5] it was 1.92 µM; in experiment [6], 1.77 µM. For the same molecule, the GI50 in experiment [7] is 5.89 µM; in experiment [8] it was 13.9 µM; in experiment [9] it was 1.86 µM; in experiment [10], 4.81 µM. The TGI in [1] came out at 11.7 µM; in [2], 6.27 µM; in experiment [3], 5.02 µM; in [4] it was 41 µM; in experiment [5] it was 3.45 µM; in experiment [6], 5.17 µM. For the same molecule, the TGI in experiment [7] is 35.7 µM; in experiment [8], 69.9 µM; in experiment [9], 3.36 µM; in experiment [10], 22.2 µM.
`Cc1ccc(-c2nc(N3CCNCC3)c3oc(-c4ccccc4)nc3n2)cc1`: the GI50 in [1] is 1.64 µM; in experiment [2], 1.68 µM; in experiment [3] it was 1.76 µM; in [4] it was 2.07 µM; in [5], 1.91 µM; in experiment [6], 1.88 µM. The GI50 in [7] is 1.89 µM; in experiment [8], 1.7 µM; in experiment [9] it was more than 100 µM; in [10], 2.06 µM. The TGI in experiment [1] turned out to be 3.43 µM; in experiment [2], 3.09 µM; in experiment [3], 3.22 µM; in experiment [4] it was 5.07 µM; in experiment [5], 3.39 µM; in [6], 3.43 µM. Further, the TGI was 4.06 µM in [7], 3.19 µM in experiment [8], more than 100 µM in experiment [9] and 3.88 µM in experiment [10].
Take `CC(C)(C)NC(=O)[C@H]1CC[C@H]2[C@@H]3CC[C@H]4NC(=O)C=C[C@]4(C)[C@H]3CC[C@]12C`: the GI50 in [1] is 23.2 µM and > 100 µM; in experiment [2], more than 100 µM; in experiment [3], more than 100 µM; in [4], more than 100 µM; in experiment [5] it was more than 100 µM; in [6] it was more than 100 µM. For the same molecule, the GI50 in experiment [7] was more than 100 µM; in experiment [8], 61 µM and > 100 µM; in experiment [9], 48.3 µM and > 100 µM; in experiment [10] it was more than 100 µM. Besides, the TGI in [1], in [2], in experiment [3], in experiment [4], in experiment [5] and in experiment [6] was more than 100 µM each time. Besides, the TGI in experiment [7], in experiment [8], in experiment [9] and in experiment [10] was more than 100 µM in each case.
As for `Cc1ccc(/C=C/c2c(C(=O)/C=C/c3ccc(Cl)cc3)c(C)nc3ccccc23)cc1`, the GI50 is 1.86 µM in [1]; 2.53 µM in [2]; 2.05 µM in experiment [3]; 2.15 µM in experiment [4]; 1.84 µM in experiment [5]; 1.53 µM in experiment [6]. Moreover, the GI50 in [7] is 3.97 µM; in experiment [8], 2.2 µM; in experiment [9] it was 2.15 µM; in experiment [10] it was 1.9 µM. Further, the TGI was 5.94 µM in [1]; 4.84 µM in experiment [2]; 4.22 µM in experiment [3]; 5.85 µM in [4]; 3.41 µM in experiment [5]; 2.87 µM in [6]. Besides, the TGI worked out at 17.9 µM in [7], 6.42 µM in [8], 4.8 µM in experiment [9] and 5.11 µM in experiment [10].
Consider `Cc1c(-c2ccc(O)cc2)oc(=O)c2ccc(O)cc12`, for which the GI50 was 87.6 µM in [1]; 27.4 µM in experiment [2]; 15.4 µM in [3]; 55.4 µM in experiment [4]; 60 µM in experiment [5]; more than 100 µM in experiment [6]. Also, the GI50 in [7] was more than 100 µM; in [8] it was 56.4 µM; in experiment [9], 63.2 µM; in [10], 55.4 µM. The TGI is more than 100 µM in experiment [1]; more than 100 µM in experiment [2]; 85.2 µM in [3]; more than 100 µM in experiment [4]; more than 100 µM in [5]; more than 100 µM in experiment [6]. Moreover, the TGI in [7], in experiment [8], in [9] and in experiment [10] was more than 100 µM throughout.
For the molecule `CN1CCN(c2ccc(NC(=O)c3cncnc3Nc3ccc(OCc4cccc(F)c4)c(Cl)c3)cc2)CC1`, the GI50 in [1] is 1.14 µM; in experiment [2], 22.4 µM; in experiment [3], 0.972 µM; in experiment [4] it was 4.91 µM; in experiment [5], 0.849 µM; in [6], 0.849 µM. The GI50 in [7] is 4 µM; in experiment [8], 1.78 µM; in experiment [9] it was 1.07 µM; in experiment [10], 0.932 µM. Besides, the TGI in experiment [1] was 3.28 µM; in experiment [2], more than 50 µM; in experiment [3], 1.87 µM; in experiment [4], 15.9 µM; in experiment [5], 1.56 µM; in experiment [6] it was 1.61 µM. The TGI in experiment [7] was more than 50 µM; in experiment [8], more than 50 µM; in [9], 2.54 µM; in experiment [10], 1.88 µM.

The values above are taken from PubChem BioAssay (NCI).
